Results: patent US11083737B1, “Methods of administering deflazacort therapy” (PTC Therapeutics, Inc., priority 2016, dated 2021)

Experiments:
[1] = Applicants' clinical observation of deflazacort in ambulatory and non-ambulatory DMD patients; format: in vivo, human; conditions: as early as six weeks after treatment initiation, preserved up to 24-months
[2] = Phase 1 open label pharmacokinetic study of oral deflazacort tablets (0.9 mg/kg/day, 8 days) in children and adolescents with DMD; format: in vivo, human; conditions: for geometric mean terminal elimination half-life: Day 1; for time by which plasma concentrations were quantifiable (first post-dose sample): all children and adolescents, Days 1 and 8
Protocol: FIG. 1 is a line graph illustrating mean plasma 21-desDFZ (active deflazacort metabolite) concentration (ng/mL; y-axis) vs. time (hours; x-axis) overlaid by study population on Day 8 (linear scale; circles=adolescent; triangles=child). Children (ages 5-11, inclusive) and adolescents (ages 12-16, inclusive) were administered the weight-based regimen of 0.9 mg/kg/day deflazacort orally once daily for 8 days. Blood samples were collected through eight hours post-dose. Blood samples were processed to plasma and concentrations of 21-desDFZ were measured using validated bioanalytical assays.
Pharmacokinetic analysis was performed as part of an open label, Phase 1 single-period study. Twenty-six (26) male DMD subjects were enrolled, consisting of children (ages 4 up to 12) and adolescents (ages 12 to 16, inclusive) with at least 12 subjects between the ages of 4 and 12 (children). The primary objective of the study was characterization of the single-dose and steady-state PK of deflazacort and its active deflazacort metabolite (21-desDFZ). The characterization of the PK of the 21-desDFZ metabolite 6β-OH-21-desDFZ was included as a secondary outcome. A total of 24 subjects (16 children and 8 adolescents) received deflazacort tablets (0.9 mg/kg/day) for 8 days. Blood samples for PK profiles were collected on Days 1 and 8. All 24 subjects who completed the study had sufficient data to use in the PK analysis. Plasma 21-desDFZ concentrations were quantifiable by the time of the first post-dose sample collection (0.5 hours) in all children and adolescents on Days 1 and 8. Plasma 21-desDFZ concentrations remained above the limit of quantification in most subjects over the 8-hour sampling window on both study days.

[3] = Day 1, deflazacort 0.9 mg/kg/day orally
[4] = Day 8, deflazacort 0.9 mg/kg/day orally
[5] = Days 1 and 8, deflazacort 0.9 mg/kg/day orally
[6] = after a single oral dose of deflazacort and at steady-state

SMILES | muscle strength in ambulatory and non-ambulatory patients [1] | geometric mean Cmax, adolescents relative to children [2, 3] | geometric mean Cmax, adolescents relative to children [2, 4] | geometric mean AUCinf, adolescents relative to children [2, 5] | geometric mean AUClast, adolescents relative to children [2, 5] | geometric mean terminal elimination half-life ([2]; adolescents) | time by which plasma concentrations were quantifiable (first post-dose sample) [2] | geometric mean terminal elimination half-life ([2]; children) | mean plasma concentration in children as percent of that observed in adolescents ([2]; about one hour following administration, Day 8, deflazacort 0.9 mg/kg/day orally) | clearance (CL/F), children vs adolescents [2, 6] | volume of distribution (Vd/F), children vs adolescents [2, 6]
CC(=O)OCC(=O)[C@@]12N=C(C)O[C@@H]1C[C@H]1[C@@H]3CCC4=CC(=O)C=C[C@]4(C)[C@H]3[C@@H](O)C[C@@]12C [deflazacort, (11β,16β)-21-(acetyloxy)-11-hydroxy-2′-methyl-5′H-pregna-1,4-dieno[17,16-d]oxazole-3,20-dione] | improves muscle strength |  |  |  |  |  |  |  |  |  | 
CC1=N[C@]2(C(=O)CO)[C@@H](C[C@H]3[C@@H]4C[C@@H](O)C5=CC(=O)C=C[C@]5(C)[C@H]4[C@@H](O)C[C@@]32C)O1 [6β-OH-21-desDFZ] |  | roughly 1.25 fold | ~1.30 fold | roughly 1.25 Fold | roughly 1.25 Fold | 1.72 h | ≤ 0.5 h | 1.63 h |  |  | 
CC1=N[C@]2(C(=O)CO)[C@@H](C[C@H]3[C@@H]4CCC5=CC(=O)C=C[C@]5(C)[C@H]4[C@@H](O)C[C@@]32C)O1 [21-desDFZ, 21-desacetyldeflazacort] |  | almost double | 1.5 fold |  |  | 1.34 h | ≤ 0.5 h | 1.17 h | 67% | no differences | no differences
